Experimental findings from patent US20230339977A1, “SUBSTITUTED HETEROARYL COMPOUND, AND COMPOSITION AND APPLICATION THEREOF” (SUNSHINE LAKE PHARMA CO., LTD., priority 2020, published 2023) are described below.

Where two headings read alike, the source gives them in different places.

The subject of series [1] is JAK2/TYK2. Briefly: Cell level activity test of JAK2/TYK2 (IL-12 mediated IFNγ expression in NK92 cells). The format is cell-based. The note with it: IFNγ in supernatant by ELISA, NK92 cells with IL-12, 24 h. The source says:
TYK2 belongs to the JAK family, and can accept the ligand acting on the coupled receptor signal to regulate downstream signal activator of transcription (STAT) phosphorylation. Phosphorylation of STAT can regulate the expression of downstream related genes, leading to changes in physiological functions such as cell proliferation and differentiation. IL-12 mediates IFNγ expression in NK92 cells through JAK2/TYK2.
Therefore, by inhibiting TYK2 activity, inhibition of this cascade pathway leads to a decrease in IFNγ expression. However, IL-2 can induce NK92 proliferation and produce IFNγ through receptor-coupled […], so the influence of IL-2 needs to be ruled out. In this experiment, the activity of compounds on JAK2/TYK2 was evaluated by detecting the expression of IFNγ at various compound concentrations.
The test compound was dissolved in DMSO, prepared into a 20 mM stock solution, and stored at -20° C. for future use. The mother solution was diluted 10 times with DMSO to make a 2 mM solution, then diluted with medium to an initial concentration of […], and then diluted 3-fold with medium containing 5% DMSO to obtain a prepared concentration gradient of […], 33333.3 nM, 11111.1 nM, 3703.70 nM, 1234.57 nM, 411.523 nM, 137.174 nM, 45.7247 nM, 15.2416 nM; 10 ul of the above-mentioned concentration of drugs were added into a 96-well plate to obtain the final concentrations of […], 3333.3 nM, 1111.1 nM, 370.4 nM, 123.5 nM, 41.1 nM, 13.7 nM, 4.6 nM, 1.52 nM;
NK92 cells were resuscitated and cultured, 16 h before the experiment, the medium was replaced with interleukin-free medium. The mixture was centrifuged and IL-12 medium was added to resuspend the cells, seeded 95 ul in a 96-well plate at a density of 20,000 cells/well, 10 ul of the above gradual dilution was added and incubated for 24 h, centrifuged to take the supernatant, diluted 3-fold with pure water, and the IFNγ concentration of the supernatant was detected by ELISA, the IC50 value was calculated.
In general terms: In an ELISA, binding on a coated surface is turned into a signal by an enzyme label.

Series [2] can be described thus: Pharmacokinetic evaluation in rats after intravenous injection and oral administration. The note with it: rat, plasma; for AUC(0-t): read-out: PK AUClast; for Cmax: read-out: PK Cmax; for half-life: read-out: PK T½ (converted). The format is in vivo. The protocol: The analytical LC/MS/MS system includes an Agilent 1200 series vacuum degasser, a binary syringe pump, an orifice plate autosampler, a column oven, and an Agilent G6430 triple quadrupole mass spectrometer with an electrospray ionization (ESI) source.
Agilent XDB-C18, 2.1 × 30 mm, 3.5 µM column was used to analysis, 5 µL sample was injected. Analytical conditions: Mobile phases were 0.1% formic acid in water (A) and 0.1% formic acid in methanol (B). The flow rate was 0.4 mL/min.
In addition, Agilent 6330 series LC/MS/MS spectrometer was used for analysis, equipped with G1312A binary syringe pump, G1367A automatic sampler and G1314C UV detector; LC/MS/MS spectrometer used ESI radiation source. Optimum analysis was achieved using standards with appropriate cation model processing and MRM conversion for each analyte. A Capcell MP-C18 column, 100 × 4.6 mm I.D., 5 µM (Phenomenex, Torrance, California, USA) was used during the analysis. Mobile phase was 5 mM ammonium acetate, 0.1% methanol in water (A): 5 mM ammonium acetate, 0.1% methanol in acetonitrile (B) (70/30, v/v); flow rate was 0.6 mL/min; column temperature was maintained at room temperature; 20 µL of sample was injected.
The present invention evaluates the pharmacokinetic studies of the compounds of the present invention in mice, rats, dogs or monkeys. The compounds of the present invention were administered in the form of aqueous solution or 2% HPMC + 1% Tween-80 aqueous solution, 5% DMSO + 5% saline solution, 4% MC or capsule. For intravenous administration, animals were dosed at about 0.5, 0.6, 1 or 2 mg/kg. The oral doses (p.o.) were 5 or 10 mg/kg for rats and mice, and 10 mg/kg for dogs and monkeys. Bloods (0.3 mL) were taken at time points 0.25, 0.5, 1.0, 2.0, 3.0, 4.0, 6.0, 8.0, 12 and 24 h and centrifuged at 3,000 or 4,000 rpm for 10 min. Plasma solutions were collected and stored at -20° C. or -70° C. until LC/MS/MS analysis as described above. […] Table 2 is the experimental results of the pharmacokinetic characteristics of the compounds provided in the examples of the present invention in rats.

The test system of series [3] is JAK1/TYK2. The series can be described thus: Cell level activity test of JAK1/TYK2 (IFN-α induced STAT3 phosphorylation in PBMC). Type of series: cell-based. The note with it: Homo sapiens; P-STAT3 by ELISA in PBMC, compound 1 h, IFN-α 5000 U/mL 15 min; read-out: IC50 nM (JAK 1 /TYK2). The protocol:
IFN-α can induce the phosphorylation of STAT3 downstream of JAK1/TYK2 in PBMC, and by measuring the level of STAT3 phosphorylation, the activity of the compound on JAK1/TYK2 at the cell level can be reflected.
Whole blood was collected from healthy subjects, anticoagulated with heparin sodium, and PBMC (human peripheral blood mononuclear cells) were extracted. PBMC were seeded in a 96-well culture plates at a density of 1*106/well. Positive wells and negative wells were added with the same volume of DMSO as the compound, and the final concentration of DMSO was 0.5%. The compounds were incubated with the cells at 37° C. for 1 h, and then stimulated by adding IFN-α at a final concentration of 5000 U/mL, an equal volume of medium was added to the negative wells, and incubated for 15 min. The cells were centrifuged to remove the supernatant, then lysed, and P-STAT3 was measured according to the instructions of the ELISA kit, the absorbance was read at 450 nm, and the IC50 value or inhibition rate was calculated.

On to `COC(C)CCOc1cc(-c2cn(C)c3cnc(NC(C)=O)cc23)nc2c1CCOC21CCOC1` (stereo in doubt) [Example 43, N-(3-(4′-((R)-3-Methoxybutoxy)-4,5,5′,6′-Tetrahydro-2H-Spiro[Furan-3,8′-Pyrano[3,4-b]Pyridin]-2′-yl)-1-Methyl-1H-Pyrrolo[2,3-c]Pyridin-5-yl)Acetamide], for which the IC50 in series [1] (NK92, 24 h) was determined as 26.4 nM. By Cmax is commonly meant the maximum level reached in the sampled fluid or tissue. A word on the bioavailability: it is dose-corrected exposure relative to a reference, in per cent. Read a low bioavailability as poor availability. For the molecule `CC(=O)Nc1cc2c(-c3cc(OCCC(C)(C)O)c4c(n3)C3(CCOC3)OCC4)cn(C)c2cn1` (stereo not shown) [Example 26, N-(3-(4′-(3-Hydroxy-3-Methylbutoxy)-4,5,5′,6′-Tetrahydro-2H-Spiro[Furan-3, 8′-Pyrano[3,4-b]Pyridin]-2′-yl)-1-Methyl-1H-Pyrrolo[2,3-c]Pyridin-5-yl)Acetamide], in series [2] (IV 2 mg/kg), the AUC(0-t) amounted to 494 ng·h/mL, the maximum concentration (Cmax) is 289 ng/mL and the half-life is 1.65 h. In series [2] (PO 5 mg/kg), the AUC(0-t) is 2290 ng·h/mL, the peak concentration (Cmax) worked out at 612 ng/mL and the half-life was 3.62 h. This molecule yielded a bioavailability in series [2] (oral bioavailability, PO 5 mg/kg) of 98.5%. For the same molecule, the IC50 in series [3] was 110 nM.

`COCC(C)(C)COc1cc(-c2cn(C)c3cnc(NC(C)=O)cc23)nc2c1CCOC21CCOC1` (stereo not shown) [Example 30, N-(3-(4′-(3-Methoxy-2,2-Dimethylpropoxy)-4,5,5′,6′-Tetrahydro-2H-Spiro[Furan-3,8′-Pyrano[3,4-b]Pyridin]-2′-yl)-1-Methyl-1H-Pyrrolo[2,3-c]Pyridin-5-yl)Acetamide] came in with an IC50 in series [1] (NK92, 24 h) of 102 nM.

Regarding `COCCOCCCOc1cc(-c2cn(C)c3cnc(NC(C)=O)cc23)nc2c1CCOC21CCOC1` (stereo not shown) [Example 32, N-(3-(4′-(3-(2-Methoxyethoxy)Propoxy)-4,5,5′,6′-Tetrahydro-2H-Spiro[Furan-3,8′-Pyrano[3,4-b]Pyridin]-2′-yl)-1-Methyl-1H-Pyrrolo[2,3-c]Pyridin-5-yl)Acetamide], the IC50 in series [1] (NK92, 24 h) was 30.6 nM. For the molecule `CC(=O)Nc1cc2c(-c3cc(OCCCOC(F)F)c4c(n3)C3(CCOC3)OCC4)cn(C)c2cn1` (stereo not shown) [Example 33, N-(3-(4′-(3-(Difluoromethoxy)Propoxy)-4,5,5′,6′-Tetrahydro-2H-Spiro[Furan-3,8′-Pyrano[3,4-b]Pyridin]-2′-yl)-1-Methyl-1H-Pyrrolo[2,3-c]Pyridin-5-yl)Acetamide], in series [1] (NK92, 24 h), the IC50 worked out at 38.6 nM.

In series [1] (NK92, 24 h), `CC(=O)Nc1cc2c(-c3cc(OCCCO)c4c(n3)C3(CCOC3)OCC4)cn(C)c2cn1` (stereo not shown) [Example 34, N-(3-(4′-(3-Hydroxypropoxy)-4,5,5′,6′-Tetrahydro-2H-Spiro[Furan-3,8′-Pyrano[3,4-b]Pyridin]-2′-yl)-1-Methyl-1H-Pyrrolo[2,3-c]Pyridin-5-yl)Acetamide] showed an IC50 of 34.3 nM.

As for `CC(=O)Nc1cc2c(-c3cc(OCC(C)(C)CO)c4c(n3)C3(CCOC3)OCC4)cn(C)c2cn1` (stereo not shown) [Example 35, N-(3-(4′-(3-Hydroxy-2,2-Dimethylpropoxy)-4,5,5′,6′-Tetrahydro-2H-Spiro[Furan-3,8′-Pyrano[3,4-b]Pyridin]-2′-yl)-1-Methyl-1H-Pyrrolo[2,3-c]Pyridin-5-yl)Acetamide], the IC50 in series [1] (NK92, 24 h) was 20.4 nM. With `COCCOCc1cc(-c2cn(C)c3cnc(NC(C)=O)cc23)nc2c1CCOC21CCOC1` (stereo not shown) [Example 36, N-(3-(4′-((2-Methoxyethoxy)Methyl)-4,5,5′,6′-Tetrahydro-2H-Spiro[Furan-3,8 ‘-Pyrano[3,4-b]Pyridin]-2′-yl)-1methyl-1H-Pyrrolo[2,3-c]Pyridin-5-yl)Acetamide], the IC50 in series [1] (NK92, 24 h) stood at 52.9 nM. As for `CC(=O)Nc1cc2c(-c3cc(OCC[C@@H](C)O)c4c(n3)C3(CCOC3)OCC4)cn(C)c2cn1` (stereo partly drawn) [Example 37, N-(3-(4′-((R)-3-Hydroxybutoxy)-4,5,5′,6′-Tetrahydro-2H-Spiro[Furan-3,8′-Pyrano[3,4-b]Pyridin]-2′-yl)-1-Methyl-1H-Pyrrolo[2,3-c]Pyridin-5-yl)Acetamide], the IC50 in series [1] (NK92, 24 h) amounted to 20 nM. `CO[C@@H](C)CCOc1cc(-c2cn(C)c3cnc(NC(C)=O)cc23)nc2c1CCOC21CCOC1` (stereo partly drawn) [Example 38, N-(3-(4′-((S)-3-Methoxybutoxy)-4,5,5′,6′-Tetrahydro-2H-Spiro[Furan-3,8′-Pyrano[3,4-b]Pyridin]-2′-yl)-1-Methyl-1H-Pyrrolo[2,3-c]Pyridin-5-yl)Acetamide] gave an IC50 in series [1] of 27.7 nM. Turning to `CC(=O)Nc1cc2c(-c3cc(OCC[C@H](C)O)c4c(n3)C3(CCOC3)OCC4)cn(C)c2cn1` (stereo partly drawn) [Example 39, N-(3-(4′-((S)-3-Hydroxybutoxy)-4,5,5′,6′-Tetrahydro-2H-Spiro[Furan-3,8′-Pyrano[3,4-b]Pyridin]-2′-yl)-1-Methyl-1H-Pyrrolo[2,3-c]Pyridin-5-yl)Acetamide], the IC50 in series [1] (NK92, 24 h) worked out at 11 nM. With `CC(=O)Nc1cc2c(-c3cc(OCCC(C)(C)C#N)c4c(n3)C3(CCOC3)OCC4)cn(C)c2cn1` (stereo not shown) [Example 40, N-(3-(4′-(3-Cyano-3-Methylbutoxy)-4,5,5′,6′-Tetrahydro-2H-Spiro[Furan-3,8′-Pyrano[3,4-b]Pyridin]-2′-yl)-1-Methyl-1H-Pyrrolo[2,3-c]Pyridin-5-yl)Acetamide], the IC50 in series [1] (NK92, 24 h) was determined as 152 nM.

In the case of `CC(=O)Nc1cc2c(-c3cc(CC#N)c4c(n3)C3(CCOC3)OCC4)cn(C)c2cn1` (stereo not shown) [Example 42, N-(3-(4′-(Cyanomethyl)-4,5,5′,6′-Tetrahydro-2H-Spiro[Furan-3,8′-Pyrano[3,4-b]Pyridin]-2′-yl)-1-Methyl-1H-Pyrrolo[2,3-c]Pyridin-5-yl)Acetamide], in series [1] (NK92, 24 h), the IC50 was determined as 9.6 nM. In turn, `CC(=O)Nc1cc2c(-c3cc(SCCC(C)(C)O)c4c(n3)C3(CCOC3)OCC4)cn(C)c2cn1` (stereo not shown) [Example 44, N-(3-(4′-((3-Hydroxy-3-Methylbutyl)Thio)-4,5,5′,6′-Tetrahydro-2H-Spiro[Furan-3,8′-Pyrano[3,4-b]Pyridin]-2′-yl)-1-Methyl-1H-Pyrrolo[2,3-c]Pyridin-5-yl)Acetamide] returned an IC50 in series [1] (NK92, 24 h) of 40.2 nM. The same measure, in the same setting: the figure for `CC(=O)Nc1cc2c(-c3cc(COCC(C)(C)O)c4c(n3)C3(CCOC3)OCC4)cn(C)c2cn1` (stereo not shown) [Example 45, N-(3-(4′-((2-Hydroxy-2-Methylpropoxy)Methyl)-4,5,5′,6′-Tetrahydro-2H-Spiro[Furan-3,8′-Pyrano[3,4-b]Pyridin]-2′-yl)-1-Methyl-1H-Pyrrolo[2,3-c]Pyridin-5-yl)Acetamide] is 111 nM.
